The values below come from patent US20130158049A1, “7-AZAINDOLE INHIBITORS OF CRAC” (Hoffmann-La Roche Inc., priority 2011, published 2013).

The structures appear in SMILES notation.

This assay has as its system Jurkat IL-2 Production. In words: Jurkat IL-2 Production Assay. Type of assay: cell-based. To be noted: Homo sapiens; Jurkat cell (ATCC); PHA 5 μg/mL with 1% FBS, or PMA/Ionomycin with 30% FBS (table does not say which); incubation 18 h~20 h. The procedure: Jurkat IL-2 Production Assay
Cell: Jurkat cell (ATCC) was grown in RPMI 1640 with 10% FBS and 1% penicillin/streptomycin. The cell density was kept at 1.2˜1.8×10^6/mL in culture flask before seeding into culture plate, and the cell density in the plate was 0.5×10^6/[…]/well.
Culture media: RPMI 1640 with 1% FBS or 30% FBS for high serum assay.
Test compound: serial dilution was done in 100% DMSO, and intermediate dilution was done with RPMI 1640 medium with 1% FBS. The DMSO final concentration in culture well was 0.25%.
Stimulant: PHA (Sigma#L9017-10MG) was used for the assay with 1% FBS in culture medium, and added after 10 minutes exposure of cell to compound/DMSO. The PHA final concentration in culture well was 5 μg/mL. PMA (Sigma# P-8139 5MG)/Ionomycin (Sigma# I0634-5MG) was used for the assay with 30% FBS in culture medium, and added at same time point as the 1% FBS culture assay. The final concentration of PMA was 50 ng/mL, and Ionomycin final concentration was 500 ng/mL.
Incubation: at 37° C. with 5% CO2 and 95% humidity for 18 h˜20 h.
IC50: IC50 was calculated with the data analysis software XLfit4, General Pharmacology model 251.
For `COC(=O)c1ccc(-c2cnc3[nH]c(-c4c(F)cccc4F)cc3c2)c(C)c1` [Example 1, 4-[2-(2,6-Difluoro-phenyl)-1H-pyrrolo[2,3-b]pyridin-5-yl]-3-methyl-benzoic acid methyl ester], the midpoint of inhibition, the IC50, lay at 588 nM.

For the molecule `COc1ccc(-c2cnc3[nH]c(-c4c(F)cccc4F)cc3c2)c(OC)c1` [Example 2, 2-(2,6-Difluoro-phenyl)-5-(2,4-dimethoxy-phenyl)-1H-pyrrolo[2,3-b]pyridine], the 50% inhibitory concentration (IC50) turned out to be 150 nM.

Take `Cc1cc(S(=O)(=O)N(C)C)ccc1-c1cnc2[nH]c(-c3c(F)cccc3F)cc2c1` [Example 3, 4-[2-(2,6-Difluoro-phenyl)-1H-pyrrolo[2,3-b]pyridin-5-yl]-3,N,N-trimethyl-benzenesulfonamide]: the 50% inhibitory concentration (IC50) stood at 124 nM.

Consider `CCn1nc(-c2cccnc2)cc1-c1cnc2[nH]c(-c3c(F)cccc3F)cc2c1` [Example 4, 2-(2,6-Difluoro-phenyl)-5-(2-ethyl-5-pyridin-3-yl-2H-pyrazol-3-yl)-1H-pyrrolo[2,3-b]pyridine], for which 134 nM corresponded to half-maximal inhibition (IC50).

On to `Cc1sc(-c2cccnc2)nc1-c1cnc2[nH]c(-c3c(F)cccc3F)cc2c1` [Example 5, 2-(2,6-Difluoro-phenyl)-5-(5-methyl-2-pyridin-3-yl-thiazol-4-yl)-1H-pyrrolo[2,3-b]pyridine], for which the half-inhibitory concentration (IC50) was 90 nM.

In the case of `Cn1nc(C(F)(F)F)cc1-c1cnc2[nH]c(-c3c(F)cccc3F)cc2c1` [Example 6, 2-(2,6-Difluoro-phenyl)-5-(2-methyl-5-trifluoromethyl-2H-pyrazol-3-yl)-1H-pyrrolo[2,3-b]pyridine], inhibition was half-maximal at 113 nM (IC50).

In turn, `CCn1nc(C(F)(F)F)cc1-c1cnc2[nH]c(-c3c(F)cccc3F)cc2c1` [Example 7, 2-(2,6-Difluoro-phenyl)-5-(2-ethyl-5-trifluoromethyl-2H-pyrazol-3-yl)-1H-pyrrolo[2,3-b]pyridine] gave a half-maximal inhibitory concentration (IC50) of 54 nM.

`Cc1sc(-c2ncco2)nc1-c1cnc2[nH]c(-c3c(F)cccc3F)cc2c1` [Example 8, 2-(2,6-Difluoro-phenyl)-5-(5-methyl-2-oxazol-2-yl-thiazol-4-yl)-1H-pyrrolo[2,3-b]pyridine] yielded a 50% inhibitory concentration (IC50) of 102 nM.

The molecule `CCn1nc(-c2cccnc2)nc1-c1cnc2[nH]c(-c3c(F)cccc3F)cc2c1` [Example 9, 2-(2,6-Difluoro-phenyl)-5-(2-ethyl-5-pyridin-3-yl-2H-[1,2,4]-triazol-3-yl)-1H-pyrrolo[2,3-b]pyridine] registered a half-maximal inhibitory concentration (IC50) of 56 nM.

As to `Cn1nc(-c2cccnc2)nc1-c1cnc2[nH]c(-c3c(F)cccc3F)cc2c1` [Example 10, 2-(2,6-Difluoro-phenyl)-5-(2-methyl-5-pyridin-3-yl-2H-[1,2,4]triazol-3-yl)-1H-pyrrolo[2,3-b]pyridine], half-maximal inhibition (IC50) required 106 nM.

The molecule `CNC(=O)c1cc(C)c(-c2cnc3[nH]c(-c4c(F)cccc4F)cc3c2)cn1` [Example 11, 5-[2-(2,6-Difluoro-phenyl)-1H-pyrrolo[2,3-b]pyridin-5-yl]-4-methyl-pyridine-2-carboxylic acid methylamide] gave a half-maximal inhibitory concentration (IC50) of 242 nM.

Regarding `Cc1cc(C(=O)NCCO)ncc1-c1cnc2[nH]c(-c3c(F)cccc3F)cc2c1` [Example 12, 5-[2-(2,6-Difluoro-phenyl)-1H-pyrrolo[2,3-b]pyridin-5-yl]-4-methyl-pyridine-2-carboxylic acid (2-hydroxy-ethyl)-amide], the midpoint of inhibition, the IC50, lay at 997 nM.

`CCc1sc(-c2cccnc2)nc1-c1cnc2[nH]c(-c3c(F)cccc3F)cc2c1` [Example 13, 2-(2,6-Difluoro-phenyl)-5-(5-ethyl-2-pyridin-3-yl-thiazol-4-yl)-1H-pyrrolo[2,3-b]pyridine] showed an IC50 of 15 nM.

For the molecule `Cc1sc(-c2cnccn2)nc1-c1cnc2[nH]c(-c3c(F)cccc3F)cc2c1` [Example 14, 2-(2,6-Difluoro-phenyl)-5-(5-methyl-2-pyrazin-2-yl-thiazol-4-yl)-1H-pyrrolo[2,3-b]pyridine], half-maximal inhibition (IC50) required 36 nM.

Regarding `Cn1nc(C(F)(F)F)cc1-c1cnc2[nH]c(-c3c(F)cccc3Cl)cc2c1` [Example 15, 2-(2-Chloro-6-fluoro-phenyl)-5-(2-methyl-5-trifluoromethyl-2H-pyrazol-3-yl)-1H-pyrrolo[2,3-b]pyridine], the half-inhibitory concentration (IC50) worked out at 53 nM.

For `Cc1cc(S(=O)(=O)N(C)C)ccc1-c1cnc2[nH]c(-c3c(F)cccc3Cl)cc2c1` [Example 16, 4-[2-(2-Chloro-6-fluoro-phenyl)-1H-pyrrolo[2,3-b]pyridin-5-yl]-3,N,N-trimethyl-benzenesulfonamide], the 50% inhibitory concentration (IC50) amounted to 99 nM.

`CCn1nc(-c2cnccn2)cc1-c1cnc2[nH]c(-c3c(F)cccc3Cl)cc2c1` [Example 17, 2-(2-Chloro-6-fluoro-phenyl)-5-(2-ethyl-5-pyrazin-2-yl-2H-pyrazol-3-yl)-1H-pyrrolo[2,3-b]pyridine] had a half-maximal inhibitory concentration (IC50) of 15 nM.

In turn, `Cc1sc(-c2cnccn2)nc1-c1cnc2[nH]c(-c3c(F)cccc3Cl)cc2c1` [Example 18, 2-(2-Chloro-6-fluoro-phenyl)-5-(5-methyl-2-pyrazin-2-yl-thiazol-4-yl)-1H-pyrrolo[2,3-b]pyridine] returned a half-inhibitory concentration (IC50) of 39 nM.

Turning to `COc1cc(C#N)ccc1-c1cnc2[nH]c(-c3c(F)cccc3Cl)cc2c1` [Example 19, 4-[2-(2-Chloro-6-fluoro-phenyl)-1H-pyrrolo[2,3-b]pyridin-5-yl]-3-methoxy-benzonitrile], the concentration for half-maximal inhibition (IC50) stood at 35 nM.

The molecule `Cc1cc(S(C)(=O)=O)ncc1-c1cnc2[nH]c(-c3c(F)cccc3Cl)cc2c1` [Example 20, 2-(2-Chloro-6-fluoro-phenyl)-5-(6-methanesulfonyl-4-methyl-pyridin-3-yl)-1H-pyrrolo[2,3-b]pyridine] yielded an IC50 of 72 nM.

With `CCn1nc(-c2cnccn2)cc1-c1cnc2[nH]c(-c3ccncc3C)cc2c1` [Example 21, 5-(2-Ethyl-5-pyrazin-2-yl-2H-pyrazol-3-yl)-2-(3-methyl-pyridin-4-yl)-1H-pyrrolo[2,3-b]pyridine], the IC50 came to 158 nM.

In turn, `CCn1nc(-c2cccnc2)cc1-c1cnc2[nH]c(-c3ccncc3C)cc2c1` [Example 22, 5-(1-Ethyl-3-(pyridin-3-yl)-1H-pyrazol-5-yl)-2-(3-methylpyridin-4-yl)-1H-pyrrolo[2,3-b]pyridine] came in with an IC50 of 163 nM.

Take `CCn1nc(C(F)(F)F)cc1-c1cnc2[nH]c(-c3ccncc3C)cc2c1` [Example 23, 5-(1-ethyl-3-(trifluoromethyl)-1H-pyrazol-5-yl)-2-(3-methylpyridin-4-yl)-1H-pyrrolo[2,3-b]pyridine]: the IC50 is 145 nM.

Take `Cc1cc(S(C)(=O)=O)ncc1-c1cnc2[nH]c(-c3ccncc3C)cc2c1` [Example 24, 5-(4-Methyl-6-(methylsulfonyl)pyridin-3-yl)-2-(3-methylpyridin-4-yl)-1H-pyrrolo[2,3-b]pyridine]: inhibition was half-maximal at 248 nM (IC50).

For the molecule `CCn1nc(-c2cnccn2)cc1-c1cnc2[nH]c(-c3cnccc3C)cc2c1` [Example 26, 5-(2-Ethyl-5-pyrazin-2-yl-2H-pyrazol-3-yl)-2-(4-methyl-pyridin-3-yl)-1H-pyrrolo[2,3-b]pyridine], the IC50 is 428 nM.

The molecule `Cc1cc(S(C)(=O)=O)ncc1-c1cnc2[nH]c(-c3cnccc3C)cc2c1` [Example 27, 5-(4-Methyl-6-(methylsulfonyl)pyridin-3-yl)-2-(4-methylpyridin-3-yl)-1H-pyrrolo[2,3-b]pyridine] came in with a half-maximal inhibitory concentration (IC50) of 438 nM.

The molecule `CCn1nc(-c2cccnc2)cc1-c1cnc2[nH]c(-c3cnccc3Cl)cc2c1` [Example 28, 2-(4-chloropyridin-3-yl)-5-(1-ethyl-3-(pyridin-3-yl)-1H-pyrazol-5-yl)-1H-pyrrolo[2,3-b]pyridine] yielded an IC50 of 185 nM.

Regarding `Cc1cc(S(C)(=O)=O)ncc1-c1cnc2[nH]c(-c3cnccc3Cl)cc2c1` [Example 29, 2-(4-Chloropyridin-3-yl)-5-(4-methyl-6-(methylsulfonyl)pyridin-3-yl)-1H-pyrrolo[2,3-b]pyridine], inhibition was half-maximal at 275 nM (IC50).

On to `CCn1nc(-c2cccnc2)cc1-c1cnc2[nH]c(-c3c(C)noc3C)cc2c1` [Example 30, 2-(3,5-Dimethyl-isoxazol-4-yl)-5-(2-ethyl-5-pyridin-3-yl-2H-pyrazol-3-yl)-1H-pyrrolo[2,3-b]pyridine], for which the IC50 was determined as 441 nM.

Molecule `Cc1cc(S(C)(=O)=O)ncc1-c1cnc2[nH]c(C3CCCCC3)cc2c1` [Example 31, 2-cyclohexyl-5-(4-methyl-6-(methylsulfonyl)pyridin-3-yl)-1H-pyrrolo[2,3-b]pyridine] yielded a 50% inhibitory concentration (IC50) of 107 nM.

As to `CCn1nc(-c2cccnc2)cc1-c1cnc2[nH]c(C3CCCCC3)cc2c1` [Example 32, 2-Cyclohexyl-5-(1-ethyl-3-(pyridin-3-yl)-1H-pyrazol-5-yl)-1H-pyrrolo[2,3-b]pyridine], the midpoint of inhibition, the IC50, lay at 108 nM.

Molecule `CCn1nc(-c2cnccn2)cc1-c1cnc2[nH]c(C3CCCCC3)cc2c1` [Example 33, 2-Cyclohexyl-5-(1-ethyl-3-(pyrazin-2-yl)-1H-pyrazol-5-yl)-1H-pyrrolo[2,3-b]pyridine] yielded an IC50 of 111 nM.
